Measurements published in patent US6358999B2, “Use of zinc tranexamate in the treatment of diabetes” (Hamari Chemicals, LTD, priority 2000, dated 2002).

Key:
intestinal α-glucosidase [1] = assay: Inhibition of intestinal α-glucosidase activity of normal mouse (intestinal homogenate, glucose production); format: biochemical; conditions: for Glucose (glucose production from isomaltose): substrate isomaltose; for Glucose (glucose production from isomaltose) / Glucose (glucose production from maltose) / Glucose (glucose production from sucrose): 37° C., 30 minutes; for Glucose (glucose production from maltose): substrate maltose
Protocol: (§1) Intestinal tract enucleated from a normal mouse was homogenized by the conventional method after removing membrane mucosa. As a substrate, sucrose, starch, maltose or isomaltose was used. The homogenate was incubated with the substrate in the presence of a test compound (Y-4 or zinc chloride) at 37° C. for 30 minutes. The reaction mixture was centrifuged and the glucose concentration in the resulting supernatant was assayed. The glucose assay was conducted calorimetrically by adding a chromogenic reagent (0.47 mol/l of orthotoluidine, 16 mol/l of acetic acid, 10 mmol/l of boric acid) to the supernatant, heating the mixture in a boiling water bath for 8 minutes and measuring the absorbance at 635 nm. α-Glucosidase activity expressed in terms of glucose concentration/mg protein was calculated.

intestinal α-glucosidase [2] = assay: Inhibition of intestinal α-glucosidase activity of streptozocin-induced diabetic mouse; format: biochemical; conditions: for Glucose (glucose production from maltose) / Glucose (glucose production from sucrose): diabetic mouse; for Glucose (glucose production from maltose): substrate maltose; for Glucose (glucose production from sucrose): substrate sucrose
Protocol: as §1
Example 5 was repeated using intestinal tract enucleated from a diabetic mouse induced by the treatment with streptozocin instead of intestinal tract enucleated from a normal mouse to determine the inhibitory effect of Y-4 on α-glycosidase activity. The intestinal α-glucosidase activity was higher in streptozocin-induced diabetic mouse than in normal mouse. […] The inhibitory effect of Y-4 was more remarkable in the diabetic mouse than in normal mouse.

With `[Cl-].[Cl-].[Zn+2]` [ZnCl2, zinc chloride] the “Inhibition of the enzymatic reaction with other substrates” value (intestinal α-glucosidase [1]; starch, maltose, isomaltose) was “not effective”, the “Glucose (glucose production from isomaltose)” value (intestinal α-glucosidase [1]; inhibitor 5 mM) was 6.207 ± 0.230 mg/mg protein and the “Glucose (glucose production from isomaltose)” value (intestinal α-glucosidase [1]; inhibitor 10 mM) was 5.868 ± 0.496 mg/mg protein. The “Glucose (glucose production from isomaltose)” value (intestinal α-glucosidase [1]; inhibitor 30 mM) was 6.510 ± 0.169 mg/mg protein, the “Glucose (glucose production from isomaltose)” value (intestinal α-glucosidase [1]; inhibitor 50 mM) was 5.421 ± 0.339 mg/mg protein and the “Glucose (glucose production from maltose)” value (intestinal α-glucosidase [1]; inhibitor 5 mM) was 19.917 ± 0.932 mg/mg protein. For the same molecule, the “Glucose (glucose production from maltose)” value (intestinal α-glucosidase [1]; inhibitor 10 mM) was 18.114 ± 0.145 mg/mg protein, the “Glucose (glucose production from maltose)” value (intestinal α-glucosidase [1]; inhibitor 30 mM) was 15.657 ± 0.036 mg/mg protein and the “Glucose (glucose production from maltose)” value (intestinal α-glucosidase [1]; inhibitor 50 mM) was 10.442 ± 0.290 mg/mg protein. For the same molecule, the “Inhibition of the enzymatic reaction with sucrose” value (intestinal α-glucosidase [1]; substrate sucrose) was “as effective as Y-4”, the “Glucose (glucose production from sucrose)” value (intestinal α-glucosidase [1]; substrate sucrose, inhibitor 5 mM) was 3.509 ± 0.254 mg/mg protein and the “Glucose (glucose production from sucrose)” value (intestinal α-glucosidase [1]; substrate sucrose, inhibitor 10 mM) was 1.658 ± 0.078 mg/mg protein. The “Glucose (glucose production from sucrose)” value (intestinal α-glucosidase [1]; substrate sucrose, inhibitor 30 mM) was 0.714 ± 0.097 mg/mg protein, the “Glucose (glucose production from sucrose)” value (intestinal α-glucosidase [1]; substrate sucrose, inhibitor 50 mM) was 0.133 ± 0.024 mg/mg protein and the “Glucose (glucose production from maltose)” value (intestinal α-glucosidase [2]; inhibitor 5 mM) was 28.691 ± 1.222 mg/mg protein. The “Glucose (glucose production from maltose)” value (intestinal α-glucosidase [2]; inhibitor 10 mM) was 20.698 ± 0.442 mg/mg protein, the “Glucose (glucose production from maltose)” value (intestinal α-glucosidase [2]; inhibitor 30 mM) was 21.175 ± 0.105 mg/mg protein and the “Glucose (glucose production from maltose)” value (intestinal α-glucosidase [2]; inhibitor 50 mM) was 21.838 ± 0.652 mg/mg protein. For the same molecule, the “Glucose (glucose production from sucrose)” value (intestinal α-glucosidase [2]; inhibitor 5 mM) was 13.346 ± 0.411 mg/mg protein, the “Glucose (glucose production from sucrose)” value (intestinal α-glucosidase [2]; inhibitor 10 mM) was 6.716 ± 0.145 mg/mg protein and the “Glucose (glucose production from sucrose)” value (intestinal α-glucosidase [2]; inhibitor 30 mM) was 5.772 ± 0.121 mg/mg protein. The “Glucose (glucose production from sucrose)” value (intestinal α-glucosidase [2]; inhibitor 50 mM) was 4.973 ± 0.024 mg/mg protein and the “Inhibition of intestinal α-glucosidase, all substrates” value (intestinal α-glucosidase [2]; streptozocin-induced diabetic mouse) was “only weak inhibitory effects”.
